From ChEMBL document CHEMBL1201862, “PubChem BioAssay data set” (2004)
Activity calls are given as the source filed them.

Key:
[1] = target: T1, Apoptotic protease-activating factor 1 (Homo sapiens, UniProt O14727); test: SAR analysis of small molecule Activators of Apaf-1 in a Fluorescent assay.; type: functional; conditions: read-out: EC50_Mean;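 note: caspase-3 cleavage of fluorogenic Rh110 DEVD substrate downstream of apoptosome activation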
T1 sequence (O14727 whole entry): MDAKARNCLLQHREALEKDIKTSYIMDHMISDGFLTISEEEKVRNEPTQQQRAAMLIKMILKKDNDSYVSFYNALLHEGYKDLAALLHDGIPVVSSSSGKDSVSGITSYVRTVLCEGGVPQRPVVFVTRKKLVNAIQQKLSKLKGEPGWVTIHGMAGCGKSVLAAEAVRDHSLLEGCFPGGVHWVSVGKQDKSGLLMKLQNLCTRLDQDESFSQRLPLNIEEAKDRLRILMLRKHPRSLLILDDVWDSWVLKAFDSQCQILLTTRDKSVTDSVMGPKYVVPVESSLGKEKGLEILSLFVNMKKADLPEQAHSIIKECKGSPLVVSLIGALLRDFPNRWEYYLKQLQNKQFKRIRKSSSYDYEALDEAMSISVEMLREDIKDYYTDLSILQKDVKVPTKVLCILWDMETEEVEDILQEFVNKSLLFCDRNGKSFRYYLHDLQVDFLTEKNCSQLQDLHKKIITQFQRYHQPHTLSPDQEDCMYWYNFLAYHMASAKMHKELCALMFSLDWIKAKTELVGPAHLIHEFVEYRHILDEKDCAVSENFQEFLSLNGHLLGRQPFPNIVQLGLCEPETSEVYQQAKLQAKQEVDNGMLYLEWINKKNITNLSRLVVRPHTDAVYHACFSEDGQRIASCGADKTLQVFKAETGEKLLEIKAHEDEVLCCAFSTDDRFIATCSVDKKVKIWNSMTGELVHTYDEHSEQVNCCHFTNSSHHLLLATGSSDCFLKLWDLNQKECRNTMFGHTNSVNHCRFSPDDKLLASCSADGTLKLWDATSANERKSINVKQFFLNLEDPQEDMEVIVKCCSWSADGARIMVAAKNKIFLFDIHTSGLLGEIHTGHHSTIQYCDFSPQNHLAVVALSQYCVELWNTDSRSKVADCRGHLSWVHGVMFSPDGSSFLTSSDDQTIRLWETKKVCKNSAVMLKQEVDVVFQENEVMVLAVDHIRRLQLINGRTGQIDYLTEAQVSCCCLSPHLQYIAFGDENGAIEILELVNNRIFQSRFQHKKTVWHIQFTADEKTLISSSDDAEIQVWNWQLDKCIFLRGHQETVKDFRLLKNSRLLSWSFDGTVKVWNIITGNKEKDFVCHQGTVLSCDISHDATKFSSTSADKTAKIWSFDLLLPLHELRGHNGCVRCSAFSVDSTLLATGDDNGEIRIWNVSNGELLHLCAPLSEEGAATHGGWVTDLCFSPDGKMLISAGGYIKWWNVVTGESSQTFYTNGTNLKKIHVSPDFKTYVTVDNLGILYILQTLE

[2] = target: Induced myeloid leukemia cell differentiation protein Mcl-1 (Homo sapiens, UniProt Q07820); type: functional
Induced myeloid leukemia cell differentiation protein Mcl-1, sequence (Q07820 whole entry): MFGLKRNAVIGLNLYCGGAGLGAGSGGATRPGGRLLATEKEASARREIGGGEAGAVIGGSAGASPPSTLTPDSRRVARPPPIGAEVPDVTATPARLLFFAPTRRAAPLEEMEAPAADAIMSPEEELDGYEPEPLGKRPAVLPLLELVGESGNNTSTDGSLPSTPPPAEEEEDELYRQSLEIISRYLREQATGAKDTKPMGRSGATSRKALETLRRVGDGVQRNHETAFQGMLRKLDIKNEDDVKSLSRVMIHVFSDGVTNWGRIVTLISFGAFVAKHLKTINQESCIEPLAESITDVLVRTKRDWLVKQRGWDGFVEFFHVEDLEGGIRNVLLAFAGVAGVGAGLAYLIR

[3] = target: 72 kDa type IV collagenase (Homo sapiens, UniProt P08253); test: Dose Response validation of uHTS RPN11 inhibitor hits using a MMP-2 Fluorescence assay.; type: functional
72 kDa type IV collagenase, sequence (P08253 whole entry): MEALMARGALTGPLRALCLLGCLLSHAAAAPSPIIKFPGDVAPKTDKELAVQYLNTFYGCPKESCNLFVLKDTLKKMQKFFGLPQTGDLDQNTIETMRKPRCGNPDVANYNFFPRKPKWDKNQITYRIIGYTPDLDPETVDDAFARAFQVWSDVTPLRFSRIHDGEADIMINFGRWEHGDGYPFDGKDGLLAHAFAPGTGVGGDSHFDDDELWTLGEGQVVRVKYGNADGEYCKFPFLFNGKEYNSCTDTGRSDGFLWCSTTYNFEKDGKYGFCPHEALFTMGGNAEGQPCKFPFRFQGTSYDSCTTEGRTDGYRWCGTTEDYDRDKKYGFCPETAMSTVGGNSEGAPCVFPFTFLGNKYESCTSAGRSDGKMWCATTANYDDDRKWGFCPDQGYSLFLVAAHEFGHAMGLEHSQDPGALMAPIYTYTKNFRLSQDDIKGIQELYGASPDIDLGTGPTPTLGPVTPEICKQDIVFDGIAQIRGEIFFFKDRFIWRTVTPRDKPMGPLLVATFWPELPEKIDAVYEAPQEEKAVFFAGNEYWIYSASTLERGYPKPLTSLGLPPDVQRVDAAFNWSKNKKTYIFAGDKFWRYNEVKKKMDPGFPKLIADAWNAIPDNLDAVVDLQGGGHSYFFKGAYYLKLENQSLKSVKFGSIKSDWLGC

[4] = target: DNA (cytosine-5)-methyltransferase 1 (Homo sapiens, UniProt P26358); test: DNMT1 methyltransferase inhibitors, confirmation, biochemical, fluorescent molecular beacon (AID 602386); type: functional
DNA (cytosine-5)-methyltransferase 1, sequence (P26358 whole entry): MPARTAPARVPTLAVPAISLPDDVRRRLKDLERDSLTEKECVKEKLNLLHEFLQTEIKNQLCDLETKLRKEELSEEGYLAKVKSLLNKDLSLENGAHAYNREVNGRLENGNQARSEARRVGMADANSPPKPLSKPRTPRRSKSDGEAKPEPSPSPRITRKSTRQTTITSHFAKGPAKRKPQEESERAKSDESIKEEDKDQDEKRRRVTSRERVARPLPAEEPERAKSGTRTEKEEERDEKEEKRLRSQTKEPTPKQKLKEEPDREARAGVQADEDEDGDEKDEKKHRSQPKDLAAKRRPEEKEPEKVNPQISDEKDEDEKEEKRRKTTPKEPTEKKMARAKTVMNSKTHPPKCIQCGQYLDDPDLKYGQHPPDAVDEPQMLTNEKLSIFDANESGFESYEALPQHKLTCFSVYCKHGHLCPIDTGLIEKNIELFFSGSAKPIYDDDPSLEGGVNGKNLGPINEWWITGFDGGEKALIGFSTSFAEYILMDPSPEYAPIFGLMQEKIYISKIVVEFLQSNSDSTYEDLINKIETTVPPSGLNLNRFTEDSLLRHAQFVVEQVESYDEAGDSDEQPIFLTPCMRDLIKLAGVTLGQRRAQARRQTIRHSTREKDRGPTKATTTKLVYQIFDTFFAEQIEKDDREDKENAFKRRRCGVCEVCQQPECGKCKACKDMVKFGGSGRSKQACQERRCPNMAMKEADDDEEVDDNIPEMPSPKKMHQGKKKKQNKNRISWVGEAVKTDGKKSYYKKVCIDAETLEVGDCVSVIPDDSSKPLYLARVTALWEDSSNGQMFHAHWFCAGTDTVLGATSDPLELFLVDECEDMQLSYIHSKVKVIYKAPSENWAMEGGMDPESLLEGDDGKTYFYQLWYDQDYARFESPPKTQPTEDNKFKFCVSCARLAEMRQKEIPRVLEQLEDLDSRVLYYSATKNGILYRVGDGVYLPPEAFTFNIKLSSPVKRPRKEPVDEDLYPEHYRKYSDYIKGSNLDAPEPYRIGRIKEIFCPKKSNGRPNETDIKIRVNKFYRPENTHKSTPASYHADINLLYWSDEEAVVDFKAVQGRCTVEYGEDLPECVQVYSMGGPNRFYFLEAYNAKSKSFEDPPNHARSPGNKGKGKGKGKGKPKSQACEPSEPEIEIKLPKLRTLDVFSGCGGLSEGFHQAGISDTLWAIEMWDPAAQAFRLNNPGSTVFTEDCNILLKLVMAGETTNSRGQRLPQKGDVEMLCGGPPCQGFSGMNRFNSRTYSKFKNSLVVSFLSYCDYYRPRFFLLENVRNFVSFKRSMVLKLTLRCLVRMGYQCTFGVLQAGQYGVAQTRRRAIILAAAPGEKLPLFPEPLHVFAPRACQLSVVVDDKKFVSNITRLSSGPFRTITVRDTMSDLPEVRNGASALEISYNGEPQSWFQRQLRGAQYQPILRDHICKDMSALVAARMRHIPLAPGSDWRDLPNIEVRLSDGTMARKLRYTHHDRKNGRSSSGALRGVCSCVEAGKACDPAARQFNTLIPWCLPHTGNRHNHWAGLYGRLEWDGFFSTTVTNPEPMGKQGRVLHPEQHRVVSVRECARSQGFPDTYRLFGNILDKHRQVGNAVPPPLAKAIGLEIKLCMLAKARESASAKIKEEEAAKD

[5] = target: T2, Histone-lysine N-methyltransferase NSD2 (Homo sapiens, UniProt O96028); type: biochemical
T2 sequence (O96028 whole entry): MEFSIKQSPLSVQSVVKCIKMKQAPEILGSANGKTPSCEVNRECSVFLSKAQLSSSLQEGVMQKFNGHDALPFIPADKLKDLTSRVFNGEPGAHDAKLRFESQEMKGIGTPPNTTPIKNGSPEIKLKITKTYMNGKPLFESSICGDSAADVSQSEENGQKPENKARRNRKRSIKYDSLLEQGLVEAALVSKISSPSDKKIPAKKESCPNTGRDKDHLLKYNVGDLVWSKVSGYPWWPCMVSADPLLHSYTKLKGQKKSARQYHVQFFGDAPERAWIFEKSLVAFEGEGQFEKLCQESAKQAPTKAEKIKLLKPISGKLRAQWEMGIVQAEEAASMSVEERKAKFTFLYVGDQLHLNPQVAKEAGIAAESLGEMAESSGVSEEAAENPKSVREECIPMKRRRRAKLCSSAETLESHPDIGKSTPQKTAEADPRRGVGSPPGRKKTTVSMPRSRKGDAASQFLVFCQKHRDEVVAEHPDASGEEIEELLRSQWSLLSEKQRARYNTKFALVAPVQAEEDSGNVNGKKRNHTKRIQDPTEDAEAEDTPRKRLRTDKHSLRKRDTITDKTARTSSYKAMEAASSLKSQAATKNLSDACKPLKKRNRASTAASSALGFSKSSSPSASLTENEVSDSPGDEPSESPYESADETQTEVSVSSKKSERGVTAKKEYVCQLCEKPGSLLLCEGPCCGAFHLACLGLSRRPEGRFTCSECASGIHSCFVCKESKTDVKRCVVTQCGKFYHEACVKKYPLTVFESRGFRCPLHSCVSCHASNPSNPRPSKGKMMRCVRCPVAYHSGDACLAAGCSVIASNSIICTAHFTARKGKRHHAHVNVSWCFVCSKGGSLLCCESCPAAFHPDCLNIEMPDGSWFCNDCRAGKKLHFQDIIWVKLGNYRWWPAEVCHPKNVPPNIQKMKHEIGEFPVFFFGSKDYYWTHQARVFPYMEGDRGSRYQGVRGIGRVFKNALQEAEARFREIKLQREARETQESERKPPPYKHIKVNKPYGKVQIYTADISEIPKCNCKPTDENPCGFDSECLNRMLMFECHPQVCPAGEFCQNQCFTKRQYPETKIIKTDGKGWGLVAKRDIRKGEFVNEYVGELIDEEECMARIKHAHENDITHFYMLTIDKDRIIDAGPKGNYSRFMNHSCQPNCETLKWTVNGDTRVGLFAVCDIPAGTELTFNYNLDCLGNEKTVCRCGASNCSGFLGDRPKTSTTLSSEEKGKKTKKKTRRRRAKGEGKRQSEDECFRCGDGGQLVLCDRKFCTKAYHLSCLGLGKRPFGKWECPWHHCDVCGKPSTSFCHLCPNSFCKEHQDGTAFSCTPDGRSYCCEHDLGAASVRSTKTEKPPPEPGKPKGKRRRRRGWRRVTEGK

Prothrombin = Prothrombin (Bos taurus, UniProt P00735); test: thrombin inhibition, dose response, biochemical, fluorescence polarization, uHTS hits (AID 602369); type: functional
[6] = target: 26S proteasome non-ATPase regulatory subunit 14 (Homo sapiens, UniProt O00487); test: inhibition of proteasome subunit RPN11 – biochemical, fluorescence polarization, uHTS hits, confirmation (AID 602368); type: functional
26S proteasome non-ATPase regulatory subunit 14, sequence (O00487 whole entry): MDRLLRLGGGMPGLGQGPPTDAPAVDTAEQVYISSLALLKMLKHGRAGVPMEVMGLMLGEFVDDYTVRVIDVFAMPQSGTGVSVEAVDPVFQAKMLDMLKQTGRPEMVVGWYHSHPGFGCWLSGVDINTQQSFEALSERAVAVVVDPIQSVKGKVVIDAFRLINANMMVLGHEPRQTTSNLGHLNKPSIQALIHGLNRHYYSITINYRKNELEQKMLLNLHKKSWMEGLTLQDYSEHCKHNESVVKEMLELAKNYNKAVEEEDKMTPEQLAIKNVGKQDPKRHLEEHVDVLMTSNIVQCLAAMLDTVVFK

Large T antigen = Large T antigen (Simian virus 40, UniProt P03070); type: functional, Betapolyomavirus macacae;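 note: Confirmatory-stage PubChem screen for compounds that inhibit SV40 T antigen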
Large T antigen, sequence (P03070 whole entry): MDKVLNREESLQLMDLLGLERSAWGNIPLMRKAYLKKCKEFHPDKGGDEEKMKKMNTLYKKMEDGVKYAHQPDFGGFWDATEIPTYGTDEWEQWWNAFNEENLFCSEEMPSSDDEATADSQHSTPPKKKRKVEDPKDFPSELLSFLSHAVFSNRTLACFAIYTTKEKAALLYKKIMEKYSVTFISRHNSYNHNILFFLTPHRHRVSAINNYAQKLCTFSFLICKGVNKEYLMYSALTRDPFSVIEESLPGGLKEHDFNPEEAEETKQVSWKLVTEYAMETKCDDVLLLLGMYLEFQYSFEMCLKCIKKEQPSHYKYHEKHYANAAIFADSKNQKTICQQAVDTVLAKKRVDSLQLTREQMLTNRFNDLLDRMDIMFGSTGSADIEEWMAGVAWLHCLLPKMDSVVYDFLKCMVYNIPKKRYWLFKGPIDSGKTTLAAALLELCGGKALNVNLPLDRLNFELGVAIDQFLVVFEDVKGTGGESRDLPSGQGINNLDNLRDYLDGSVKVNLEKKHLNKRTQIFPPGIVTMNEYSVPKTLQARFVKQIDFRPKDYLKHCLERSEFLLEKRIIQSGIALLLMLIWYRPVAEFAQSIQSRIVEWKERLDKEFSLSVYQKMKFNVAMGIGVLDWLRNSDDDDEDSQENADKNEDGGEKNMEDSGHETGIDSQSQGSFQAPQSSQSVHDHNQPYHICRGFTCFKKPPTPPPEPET

Genome polyprotein = Genome polyprotein (dengue virus type 2, UniProt P29990); test: Dengue-2 NS5 methyltransferase inhibitors, primary screen, biochemical, confirmation dose response (AID 588689); type: functional
[7] = target: Eukaryotic translation initiation factor 4E (Mus musculus, UniProt P63073); test: eIF4E–eIF4G protein interaction inhibitors, dose response, biochemical, TR-FRET (AID 855); type: functional;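 note: potency for disrupting eIF4E binding to eIF4GI seen as loss of FRET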
Eukaryotic translation initiation factor 4E, sequence (P63073 whole entry): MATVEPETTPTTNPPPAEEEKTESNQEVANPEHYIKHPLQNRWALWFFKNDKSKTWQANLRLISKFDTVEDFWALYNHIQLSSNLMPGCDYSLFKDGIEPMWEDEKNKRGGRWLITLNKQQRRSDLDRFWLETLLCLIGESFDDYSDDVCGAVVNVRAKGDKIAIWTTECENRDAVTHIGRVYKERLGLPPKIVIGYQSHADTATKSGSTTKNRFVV

[8] = nonselective inhibitors of cellular cAMP signaling, dose response, counter-screen for MC4R biased antagonist project, cell-based, TR-FRET cAMP detection (AID 602305); type: functional;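 note: U2OS cells stimulated with forskolin near its EC80 as the cAMP inducer; potency is for inhibition of forskolin-stimulated cAMP signaling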
Streptococcus = test: Group A Streptococcus viability loss, dose response, counter-screen for streptokinase expression inhibitor project, luminescence, BacTiterGlo (AID 1915); type: functional, organism-based; conditions: Streptococcus;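 note: potency for reduction of bacterial viability or growth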
Melanocortin receptor 4 [9] = target: T3, Melanocortin receptor 4 (Homo sapiens, UniProt P32245); test: MC4R antagonist potency on cAMP, dose response, cell-based, TR-FRET, biased antagonists (AID 602298); type: functional;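 note: antagonist potency against agonist-stimulated cAMP production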
T3 sequence (P32245 whole entry): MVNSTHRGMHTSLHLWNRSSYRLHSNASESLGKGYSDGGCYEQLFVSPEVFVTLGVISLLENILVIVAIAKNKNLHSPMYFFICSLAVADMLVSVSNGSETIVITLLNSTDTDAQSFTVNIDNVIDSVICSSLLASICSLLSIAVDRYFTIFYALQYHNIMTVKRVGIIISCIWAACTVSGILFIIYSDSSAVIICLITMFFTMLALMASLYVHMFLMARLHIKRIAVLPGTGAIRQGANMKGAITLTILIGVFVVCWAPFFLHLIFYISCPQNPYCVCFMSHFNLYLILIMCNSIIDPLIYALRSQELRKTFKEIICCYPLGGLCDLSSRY

[10] = tested on: Streptococcus sp. 'group A'; test: growth inhibition of control SK(-) GAS strain, dose response, counter-screen for streptokinase expression inhibitor project, luminescence, kanamycin, BacTiterGlo, confirmation (AID 1900); type: functional, organism-based; conditions: Streptococcus sp. 'group A'
Streptokinase A = target: T4, Streptokinase A (Streptococcus pyogenes serotype M1, UniProt P10520); test: S. pyogenes streptokinase expression inhibitors, potency, dose response, plasminogen activation absorbance, OD405 (AID 1914); type: functional, Streptococcus pyogenes M1 GAS;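 note: secreted streptokinase activity via plasminogen activation per viability signal from cell pellet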
T4 sequence (P10520 whole entry): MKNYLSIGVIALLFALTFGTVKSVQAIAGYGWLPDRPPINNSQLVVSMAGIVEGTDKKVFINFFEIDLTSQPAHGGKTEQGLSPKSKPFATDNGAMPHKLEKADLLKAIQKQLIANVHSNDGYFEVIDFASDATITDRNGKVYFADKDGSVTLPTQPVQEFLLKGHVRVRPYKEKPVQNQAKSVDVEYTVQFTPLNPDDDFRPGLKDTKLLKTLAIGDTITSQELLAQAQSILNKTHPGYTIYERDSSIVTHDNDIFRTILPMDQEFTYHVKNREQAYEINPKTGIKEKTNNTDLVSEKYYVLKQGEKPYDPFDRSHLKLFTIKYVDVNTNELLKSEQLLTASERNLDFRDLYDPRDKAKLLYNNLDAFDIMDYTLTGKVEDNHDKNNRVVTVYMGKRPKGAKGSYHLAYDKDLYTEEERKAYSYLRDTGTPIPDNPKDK

[11] = target: T5, Ubiquitin-conjugating enzyme E2 N (Homo sapiens, UniProt P61088); type: functional;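 note: Dose-response confirmation in a TR-FRET assay detecting UBC13-driven polyubiquitin chain formation, inhibition measured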
T5 sequence (P61088 whole entry): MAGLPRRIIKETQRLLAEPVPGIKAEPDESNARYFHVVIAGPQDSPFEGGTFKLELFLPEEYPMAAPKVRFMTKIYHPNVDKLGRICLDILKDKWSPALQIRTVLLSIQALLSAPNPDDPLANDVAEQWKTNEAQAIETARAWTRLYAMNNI

Escherichia coli = test: microbe, parasite or virus in culture
[12] = target: Low molecular weight phosphotyrosine protein phosphatase (Homo sapiens, UniProt P24666); type: functional; conditions: read-out: IC50_Mean;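 note: Dose-response confirmation assay measuring inhibition of LMPTP enzyme activity by fluorescence intensity read-out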
Low molecular weight phosphotyrosine protein phosphatase, sequence (P24666 whole entry): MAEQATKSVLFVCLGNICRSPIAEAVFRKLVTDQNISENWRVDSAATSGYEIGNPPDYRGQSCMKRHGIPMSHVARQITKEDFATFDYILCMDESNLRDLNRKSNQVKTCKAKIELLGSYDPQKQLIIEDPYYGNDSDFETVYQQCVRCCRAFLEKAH

Aurora kinase A = Aurora kinase A (Homo sapiens, UniProt O14965); type: functional;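 note: value from the Navigating the Kinome kinase panel profiling, panel entry STK6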
Aurora kinase B = Aurora kinase B (Homo sapiens, UniProt Q96GD4); type: functional
Aurora kinase B, sequence (Q96GD4 whole entry): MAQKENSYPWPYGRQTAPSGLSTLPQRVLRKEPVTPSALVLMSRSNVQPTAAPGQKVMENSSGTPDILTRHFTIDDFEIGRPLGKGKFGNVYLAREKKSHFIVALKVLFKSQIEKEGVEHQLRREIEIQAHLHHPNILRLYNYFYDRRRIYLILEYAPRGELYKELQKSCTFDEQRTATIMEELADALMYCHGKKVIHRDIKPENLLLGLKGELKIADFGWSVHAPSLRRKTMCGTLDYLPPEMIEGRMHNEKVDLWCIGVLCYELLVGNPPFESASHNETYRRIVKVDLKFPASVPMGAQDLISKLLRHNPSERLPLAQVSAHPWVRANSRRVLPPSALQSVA

Melanocortin receptor 4 [13] = target: T3, Melanocortin receptor 4; type: functional, cell-based
[14] = target: T6, Carboxy-terminal domain RNA polymerase II polypeptide A small phosphatase 1 (Homo sapiens, UniProt Q9GZU7); test: inhibitors of CTDSP1, concentration-response testing, biochemical assay, absorbance-based, actives from ultra-high-throughput screening (AID 540297); type: functional
T6 sequence (Q9GZU7 whole entry): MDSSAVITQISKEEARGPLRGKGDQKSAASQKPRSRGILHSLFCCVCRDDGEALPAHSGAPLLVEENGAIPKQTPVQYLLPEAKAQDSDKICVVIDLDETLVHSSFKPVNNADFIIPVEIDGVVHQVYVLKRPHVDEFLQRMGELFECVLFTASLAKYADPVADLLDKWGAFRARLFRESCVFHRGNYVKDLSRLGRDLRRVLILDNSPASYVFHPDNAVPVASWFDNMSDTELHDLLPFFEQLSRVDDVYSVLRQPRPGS

For `CC(CNc1ccccc1Cl)C(=O)O` (configuration not stated), the EC50 [1] was > 100 µM (inactive).

In the case of `O=C1NN(c2ccc(Cl)cc2)C(=O)/C1=C\c1ccc(-c2cccc(C(=O)O)c2)o1`, the IC50 [2] is reported as 3.21 µM (active), the IC50 [3] is reported as 56.7 µM (active) and the IC50 [4] is reported as 7.39 µM (active). For the same compound, the AC50 [5] was > 20 µM (inactive), the IC50 (Prothrombin) was 19.8 µM (active) and the IC50 [6] was 10.9 µM (active). The IC50 (Large T antigen) was 27.1 µM (active), the IC50 (Genome polyprotein) was 77.3 µM (active) and the IC50 [7] was 50 µM (inactive).

For `COc1ccc(-c2oc3ccc(N4CCOCC4)cc3c2C#CC2(O)CCCCC2)cc1`, the IC50 [8] was > 64.6 µM (inactive), the EC50 (Streptococcus) was 8.25 µM (active) and the IC50 (Melanocortin receptor 4 [9]) was > 64.6 µM (inactive). For the same compound, the EC50 [10] was 3.68 µM (active) and the EC50 (Streptokinase A) was > 150 µM (not active).

With `CC(C)[C@H](CN1CCC[C@H]1CN1C(N)=NC[C@H]1C(C)C)N1C[C@@H](Cc2ccccc2)N(CCCC2CCCC2)C1=N` the IC50 [8] was > 64.5 µM (inactive), the IC50 (Melanocortin receptor 4 [9]) was 17.7 µM (inactive) and the IC50 [11] was > 20 µM (inactive).

For `CCn1cc(C(=O)O)c(=O)c2cc(F)c(N3CCN(C(=S)NC(=O)c4ccccc4C)CC3)cc21`, the AC50 (Escherichia coli) was 8.2 µM (active) and the IC50 [12] was 7.19 µM (active).

For `COCCOC1CCC(n2nc(-c3ccc(Nc4nc5cc(Cl)cc(C)c5o4)c(F)c3)c3c(N)ncnc32)CC1` (configuration not stated), the Ki (Aurora kinase A) was 0.126 µM (active) and the Ki (Aurora kinase B) was 0.00794 µM (active).

In the case of `O=C(CSc1ccccc1)Nc1nnc(/C=C/c2ccccc2)s1`, the EC50 (Melanocortin receptor 4 [13]) is reported as > 89.2 µM (inactive).

With `Cc1ccc(-n2nnc3c(=O)n(CC(=O)NCc4ccccc4)cnc32)cc1` the IC50 [3] was 12.7 µM (active), the IC50 (Prothrombin) was > 100 µM (inactive) and the IC50 [6] was 24.8 µM (active). The IC50 [14] was 5.33 µM (active).
